Data on 18 molecules can be found in patent US9611248B2, “Chemical compounds” (Syngenta Participations AG, priority 2013, dated 2017).

The structures appear in SMILES notation.

This experiment deals with a variety of test species. In words: Post-emergence herbicidal activity. The format is in vivo. Further details: key to ABUTH (Abutilon theophrasti) damage score / AMARE (Amaranthus retroflexus) damage score / ALOMY (Alopecurus myosuroides) damage score / ECHCG (Echinochloa crus-galli) damage score / ZEAMX (Zea mays) damage score / SOLNI (Solanum nigrum) damage score: 0 = no damage to plant, 5 = total damage to plant. As to conditions: rate 1000 g/ha, evaluated after 13 days. As for the experimental part: Seeds of a variety of test species were sown in standard soil in pots. After 8 days cultivation (post-emergence) under controlled conditions in a glasshouse (at 24/16° C., day/night; 14 hours light; 65% humidity), the plants were sprayed with an aqueous spray solution derived from the formulation of the technical active ingredient in acetone/water (50:50) solution containing 0.5% Tween 20 (polyoxyethelyene sorbitan monolaurate, CAS RN 9005-64-5). The test plants were then grown in a glasshouse under controlled conditions (at 24/16° C., day/night; 14 hours light; 65% humidity) and watered twice daily. After 13 days, the test was evaluated (5=total damage to plant; 0=no damage to plant, NC=not captured).
In the case of `CCC1=C(Br)C(O)N(c2cc(C(C)(C)C#N)ncn2)C1=O` (racemic) [CB2], the “ABUTH (Abutilon theophrasti) damage score” value (“ABUTH” for short) was 3, the “ALOMY (Alopecurus myosuroides) damage score” value (shortened to “ALOMY”) stood at 1, the “AMARE (Amaranthus retroflexus) damage score” value (from here on “AMARE”) amounted to 3 and the “ECHCG (Echinochloa crus-galli) damage score” value (“ECHCG” for short) worked out at 1. The “SETFA (Setaria faberi) damage score” value was 0 and the “ZEAMX (Zea mays) damage score” value is 0.

`COC1=C(C)C(=O)N(c2cc(Cl)ncn2)C1O` (racemic) [CD2]: the “ABUTH” value amounted to 2, the “ALOMY” value was found to be 3, the “AMARE” value was 5 and the “ECHCG” value worked out at 3. The “SETFA (Setaria faberi) damage score” value was found to be 4 and the “ZEAMX (Zea mays) damage score” value worked out at 1.

For the molecule `COC1=C(C)C(=O)N(c2cc(C(C)(C)C)ncn2)C1O` (racemic) [CD3], the “ABUTH” value stood at 5, the “ALOMY” value is given as 5, the “AMARE” value is reported as 5 and the “ECHCG” value came to 5. Further, the “SETFA (Setaria faberi) damage score” value turned out to be 5 and the “ZEAMX (Zea mays) damage score” value is reported as 3.

As for `COC1=C(C)C(=O)N(c2cc(C(F)(F)F)ncn2)C1O` (racemic) [CD4], the “ABUTH” value was found to be 5, the “ALOMY” value was 5, the “AMARE” value is recorded as 3 and the “ECHCG” value is reported as 5. Besides, the “SETFA (Setaria faberi) damage score” value came to 5 and the “ZEAMX (Zea mays) damage score” value is recorded as 1.

For `COC1=C(C)C(=O)N(c2cc(Br)ncn2)C1O` (racemic) [CD5], the “ABUTH” value came out at 3, the “ALOMY” value worked out at 1, the “AMARE” value was found to be 4 and the “ECHCG” value was determined as 1. Moreover, the “SETFA (Setaria faberi) damage score” value is 2 and the “ZEAMX (Zea mays) damage score” value came to 0.

As for `CCN(C)c1cc(N2C(=O)C(C)=C(OC)C2O)ncn1` (racemic) [CD6], the “ABUTH” value worked out at 3, the “ALOMY” value is given as 2, the “AMARE” value was 3 and the “ECHCG” value worked out at 0. In addition, the “SETFA (Setaria faberi) damage score” value was determined as 2 and the “ZEAMX (Zea mays) damage score” value came to 0.

In the case of `COC1=C(C)C(=O)N(c2cc(N(C)C)ncn2)C1O` (racemic) [CD7], the “ABUTH” value worked out at 2, the “ALOMY” value is on record as 0, the “AMARE” value stood at 2 and the “ECHCG” value was found to be 0. For the same molecule, the “SETFA (Setaria faberi) damage score” value is recorded as 0 and the “ZEAMX (Zea mays) damage score” value is on record as 0.

Regarding `COC1=C(C)C(=O)N(c2cc(C(C)(C)C#N)ncn2)C1O` (racemic) [CD8], the “ABUTH” value is listed as 5, the “ALOMY” value is reported as 5, the “AMARE” value came out at 5 and the “ECHCG” value came out at 5. Further, the “SETFA (Setaria faberi) damage score” value amounted to 5 and the “ZEAMX (Zea mays) damage score” value turned out to be 3.

Take `COC1=C(Br)C(=O)N(c2cc(C(C)(C)C)ncn2)C1O` (racemic) [CE1]: the “ABUTH” value stood at 4, the “ALOMY” value amounted to 2, the “AMARE” value amounted to 5 and the “ECHCG” value turned out to be 3. Moreover, the “SETFA (Setaria faberi) damage score” value was 4 and the “ZEAMX (Zea mays) damage score” value was 1.

Turning to `COC1=C(Cl)C(=O)N(c2cc(C(C)(C)C)ncn2)C1O` (racemic) [CF1], the “ABUTH” value amounted to 4, the “ALOMY” value is 1, the “AMARE” value is on record as 2 and the “ECHCG” value worked out at 4. For the same molecule, the “SETFA (Setaria faberi) damage score” value came to 4 and the “ZEAMX (Zea mays) damage score” value is reported as 1.

For `CC1=C(Cl)C(O)N(c2nccc(C(C)(C)C)n2)C1=O` (racemic) [DA1], the “ABUTH” value worked out at 4, the “ALOMY” value was 4, the “AMARE” value stood at 3 and the “ECHCG” value was determined as 4. Besides, the “SETFA (Setaria faberi) damage score” value is reported as 5 and the “ZEAMX (Zea mays) damage score” value is recorded as 0.

For `COC1=C(C)C(=O)N(c2nccc(C(C)(C)C)n2)C1O` (racemic) [DD1], the “ABUTH” value is on record as 4, the “ALOMY” value was found to be 4, the “AMARE” value was 4 and the “ECHCG” value was determined as 5. Besides, the “SETFA (Setaria faberi) damage score” value came to 4 and the “ZEAMX (Zea mays) damage score” value stood at 1.

As to `COC1=C(C)C(=O)N(c2nccc(N(C)C)n2)C1O` (racemic) [DD2], the “ABUTH” value was 0, the “ALOMY” value is 0, the “AMARE” value was found to be 1 and the “ECHCG” value is reported as 1. Moreover, the “SETFA (Setaria faberi) damage score” value is listed as 0 and the “ZEAMX (Zea mays) damage score” value was 1.

With `COC1=C(C)C(=O)N(c2ncc(Cl)c(N(C)C)n2)C1O` (racemic) [DD3], the “ABUTH” value is listed as 3, the “ALOMY” value was found to be 2, the “AMARE” value is reported as 4 and the “ECHCG” value is reported as 2. In addition, the “SETFA (Setaria faberi) damage score” value is recorded as 6 and the “ZEAMX (Zea mays) damage score” value was found to be 1.

Take `CCO/C=C\c1cnc(N2C(=O)C(C)=C(Cl)C2O)cc1C(F)(F)F` (stereo not drawn) [AA1]: the “ABUTH” value was determined as 5, the “ALOMY” value turned out to be 3, the “AMARE” value stood at 5 and the “ECHCG” value was 5. The “SETFA (Setaria faberi) damage score” value is reported as 5 and the “ZEAMX (Zea mays) damage score” value is 1.

With `CC(C)=C(C)c1cnc(N2C(=O)C(C)=C(Cl)C2O)cc1C(F)(F)F` (stereo not drawn) [AA2], the “ABUTH” value worked out at 4, the “ALOMY” value worked out at 2, the “AMARE” value was found to be 5 and the “ECHCG” value was found to be 2. Besides, the “SETFA (Setaria faberi) damage score” value was 4 and the “ZEAMX (Zea mays) damage score” value turned out to be 2.

Regarding `CC1=C(Cl)C(O)N(c2nccc(C(F)(F)F)c2F)C1=O` (stereo not drawn) [AA4], the “ABUTH” value is 1, the “ALOMY” value amounted to 1, the “AMARE” value came to 1 and the “ECHCG” value is recorded as 0. The “SETFA (Setaria faberi) damage score” value is listed as 1 and the “ZEAMX (Zea mays) damage score” value is on record as 2.

`CC1=C(Cl)C(O)N(c2cc(C(C)C)c(C(=O)OC(C)C)cn2)C1=O` (stereo not drawn) [AA9]: the “ABUTH” value was 4, the “ALOMY” value worked out at 2, the “AMARE” value worked out at 4 and the “ECHCG” value turned out to be 1. The “SETFA (Setaria faberi) damage score” value was 1 and the “ZEAMX (Zea mays) damage score” value amounted to 1.
